{"source": "ChEMBL document CHEMBL6134864", "about": "“Discovery of FLT3-ITD Inhibitor Clifutinib: A Novel Biphenylacetylene Urea Derivative in Clinical Trials for the Treatment of Relapsed/Refractory FLT3-ITD+ Acute Myeloid Leukemia” (J Med Chem, 2025)", "key": {"[1]": {"tested_on": "Receptor-type tyrosine-protein kinase FLT3 (Homo sapiens), P36888 [UNDEFINED MUTATION]", "sequence (P36888 whole entry, looked up, change not shown)": "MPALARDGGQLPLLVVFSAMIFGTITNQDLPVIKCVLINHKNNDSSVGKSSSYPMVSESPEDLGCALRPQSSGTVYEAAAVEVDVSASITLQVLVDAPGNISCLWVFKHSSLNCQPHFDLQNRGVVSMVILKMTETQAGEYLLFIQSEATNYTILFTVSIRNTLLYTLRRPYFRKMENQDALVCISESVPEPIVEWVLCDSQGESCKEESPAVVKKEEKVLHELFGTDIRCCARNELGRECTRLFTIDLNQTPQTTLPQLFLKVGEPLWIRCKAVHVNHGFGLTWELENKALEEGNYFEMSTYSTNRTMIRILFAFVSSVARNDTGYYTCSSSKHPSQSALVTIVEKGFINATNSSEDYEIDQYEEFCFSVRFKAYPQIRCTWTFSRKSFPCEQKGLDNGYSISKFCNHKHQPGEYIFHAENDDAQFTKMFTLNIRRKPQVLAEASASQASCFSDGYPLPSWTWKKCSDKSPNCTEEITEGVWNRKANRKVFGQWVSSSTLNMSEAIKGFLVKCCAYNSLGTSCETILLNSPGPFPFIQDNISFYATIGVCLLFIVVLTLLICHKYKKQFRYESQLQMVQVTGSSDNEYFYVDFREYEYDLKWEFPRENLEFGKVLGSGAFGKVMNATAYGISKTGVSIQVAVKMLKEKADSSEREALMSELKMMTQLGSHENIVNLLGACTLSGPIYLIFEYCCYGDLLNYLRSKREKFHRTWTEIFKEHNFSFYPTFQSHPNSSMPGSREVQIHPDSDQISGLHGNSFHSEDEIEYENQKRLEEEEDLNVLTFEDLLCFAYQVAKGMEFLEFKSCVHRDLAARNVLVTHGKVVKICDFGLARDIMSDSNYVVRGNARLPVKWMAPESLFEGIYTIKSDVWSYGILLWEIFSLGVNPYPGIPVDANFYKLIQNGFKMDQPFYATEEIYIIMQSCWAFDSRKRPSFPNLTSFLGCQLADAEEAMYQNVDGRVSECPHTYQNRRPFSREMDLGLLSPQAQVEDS", "experiment": "Inhibition of FLT3 in human MV4-11 cells harbouring FLT3-ITD mutant assessed as effect on FLT3 protein level at 1 to 1000 nM measured after 2 hrs by Western blot analysis", "assay_type": "cell-based", "settings": "dose 1-1000 nM"}, "[2]": {"experiment": "Half life in monkey plasma at 5 mg/kg, po measured up to 24 hrs by LC-MS/MS analysis", "assay_type": "ADME, organism-based, Macaca mulatta", "settings": "rhesus monkey"}, "[3]": {"experiment": "Cmax in rat plasma at 5 mg/kg, po measured up to 24 hrs by LC-MS/MS analysis", "assay_type": "ADME, organism-based"}, "[4]": {"experiment": "Tmax in NOD/SCID mouse plasma xenografted with human MV4-11 cells at […], po measured up to 24 hrs by LC-MS/MS analysis", "assay_type": "ADME, organism-based", "settings": "dose 1.5 mg/kg"}, "[5]": {"experiment": "Cmax in mouse plasma at 10 mg/kg, po measured up to 24 hrs by LC-MS/MS analysis", "assay_type": "ADME, organism-based"}, "[6]": {"experiment": "Half life in NOD/SCID mouse plasma xenografted with human MV4-11 cells at 4.5 mg/kg, po measured up to 24 hrs by LC-MS/MS analysis", "assay_type": "ADME, organism-based"}, "[7]": {"experiment": "Volume of distribution at steady state in monkey plasma at 1 mg/kg, iv measured up to 24 hrs by LC-MS/MS analysis", "assay_type": "ADME, organism-based, Macaca mulatta", "settings": "rhesus monkey, read-out: Vdss"}, "[8]": {"experiment": "AUClast in rat plasma at 5 mg/kg, po measured up to 24 hrs by LC-MS/MS analysis", "assay_type": "ADME, organism-based"}}, "note": "Calls of active or inactive are those of the source. The calls are words filed in the database; no cut-off is given here."}
{"compound": "CC(C)(C)c1cc(NC(=O)Nc2ccc(C#Cc3ccc(OCCCN4CCOCC4)cc3)cc2)no1", "values": [{"measurement": "inhibition", "setting": "[1]", "result": "inactive"}, {"measurement": "half-life", "setting": "[2]", "result": 8.94, "unit": "h"}, {"measurement": "Cmax", "setting": "[3]", "result": 895, "unit": "ng/mL"}, {"measurement": "Tmax at 24 h", "setting": "[4]", "result": 1, "unit": "h"}, {"measurement": "Cmax", "setting": "[5]", "result": 1660, "unit": "ng/mL"}, {"measurement": "half-life", "setting": "[6]", "result": 3.82, "unit": "h"}, {"measurement": "Vd", "setting": "[7]", "result": 0.996, "unit": "L/kg"}, {"measurement": "AUC(0-t) at 24 h", "setting": "[8]", "result": 8310, "unit": "ng·h/mL"}]}
